One compound from ChEMBL document CHEMBL3808345, “Discovery of triazolopyridine GS-458967, a late sodium current inhibitor (Late INai) of the cardiac NaV 1.5 channel with improved efficacy and potency relative to ranolazine” (Bioorg Med Chem Lett, 2016) can be followed below.

Molecules are shown by their SMILES. ≈ marks a conversion by molar mass, not a printed value. Where only a bound is given, the exact number is not on record here.

The nature of data set [1]: Clearance in iv dosed rat. The format is ADME, organism-based. Conditions: in vivo.
Data set [2] can be described thus: Clearance in iv dosed cynomolgus monkey. It is filed as ADME, organism-based, Macaca fascicularis. As to conditions: in vivo.
Data set [3] in a line: Oral bioavailability in rat. The format is ADME, organism-based. As to conditions: in vivo.
Data set [4] in a line: Oral bioavailability in cynomolgus monkey. It is filed as ADME, organism-based, Macaca fascicularis. Conditions: in vivo.
Data set [5] in a line: Lipophilicity, logD of the compound. The format is physicochemical. As to conditions: octanol/water.
The nature of data set [6]: Aqueous solubility of the compound in HCL at pH 2.2. The format is physicochemical.
A short description of data set [7]: Aqueous solubility of the compound in PBS at pH 7.6. The format is physicochemical.
Data set [8] is described as follows: Stability in human liver microsomes. The format is ADME. A general note: Liver microsomes are a subcellular fraction often used to study metabolism.
Data set [9] can be described thus: Stability in rat liver microsomes. The format is ADME.
Data set [10] in a line: Stability in dog liver microsomes. It is filed as ADME, Canis lupus familiaris.
Data set [11] can be described thus: Permeability from apical to basolateral side in human Caco2 cells at 1 uM. It is filed as ADME, cell-based. As to conditions: Caco-2, read-out: permeability. (Caco-2 monolayers are a common model of the intestinal barrier.)
A short description of data set [12]: Permeability from apical to basolateral side in human Caco2 cells at 10 uM. It is filed as ADME, cell-based. As to conditions: Caco-2, read-out: permeability.
Data set [13] in a line: Permeability from basolateral to apical side in human Caco2 cells at 1 uM. The format is ADME, cell-based. Conditions: Caco-2, read-out: permeability.
A short description of data set [14]: Permeability from basolateral to apical side in human Caco2 cells at 10 uM. The format is ADME, cell-based. Conditions: Caco-2, read-out: permeability.
Data set [15] is described as follows: AUC (0 to infinity) in po dosed rat. Conditions: in vivo. Also noted: time infinity, route oral. It is filed as ADME, organism-based.
A short description of data set [16]: AUC (0 to infinity) in po dosed cynomolgus monkey. It is filed as ADME, organism-based, Macaca fascicularis. As to conditions: in vivo. Also noted: time infinity, route oral.
A short description of data set [17]: Cmax in po dosed rat. As to conditions: in vivo. The format is ADME, organism-based. Further details: route oral.
Data set [18] in a line: Cmax in po dosed cynomolgus monkey. It is filed as ADME, organism-based, Macaca fascicularis. Also noted: route oral. Conditions: in vivo.
Data set [19] in a line: Tmax in po dosed rat. It is filed as ADME, organism-based. Conditions: in vivo.
A short description of data set [20]: Tmax in po dosed cynomolgus monkey. It is filed as ADME, organism-based, Macaca fascicularis. Conditions: in vivo.
Data set [21] is described as follows: Volume of distribution at steady state in iv dosed rat. The format is ADME, organism-based. As to conditions: in vivo, read-out: Vdss.
Data set [22] in a line: Volume of distribution at steady state in iv dosed cynomolgus monkey. It is filed as ADME, organism-based, Macaca fascicularis. As to conditions: in vivo, read-out: Vdss.

Take `FC(F)(F)Oc1ccc(-c2ccc3nnc(C(F)(F)F)n3c2)cc1`: the clearance (usually the rate of elimination divided by the concentration) in [1] is 3.22 mL/min/kg; in data set [2], 0.217 mL/min/kg. Also, the bioavailability in [3] amounted to 105%; in data set [4] it was 83%. The logD (commonly the decadic logarithm of the distribution of all forms, ionised or not, between an organic phase and buffer at a given pH) in [5] was determined as 3.38. The solubility (commonly how much of the substance goes into solution per volume) in [6] amounted to 6 µM (≈ 2.08 µg/mL); in [7] it was 4.7 µM (≈ 1.63 µg/mL). The half-life (as a rule, the time needed for the level to fall by half in the phase considered) in [8] was more than 395 min; in [9] it was 229 min; in [10] it was 70 min. For the same compound, the Papp A→B at 1 µM in data set [11] was 41.2 ×10⁻⁶ cm/s. Moreover, the Papp A→B at 10 µM in data set [12] was determined as 27.9 ×10⁻⁶ cm/s. For the same compound, the Papp B→A at 1 µM in data set [13] was 44 ×10⁻⁶ cm/s. Also, the Papp B→A at 10 µM in data set [14] amounted to 35.2 ×10⁻⁶ cm/s. Further, the results for the area under the curve AUC(0-inf) in data set [15] and in data set [16] were 5.7 µM·h and 76.1 µM·h, respectively. Besides, the figures for the Cmax in [17] and in data set [18] were 397 nM and 1480 nM, respectively. In addition, the time to peak (Tmax) (commonly the time from dosing to the highest level) in data set [19] was found to be 2.7 h; in [20], 6 h. Besides, the Vd in data set [21] is 3.4 L; in data set [22], 0.6 L.
